Measured values as given in the supplement of paper PMC10307832.

How the values were obtained:
Assay in all cases: relative viability (nuclei count vs DMSO), 5 days (fraction); higher = more cells survive
Salubrinal + Tozasertib = compound: O=C(/C=C/c1ccccc1)NC(NC(=S)Nc1cccc2cccnc12)C(Cl)(Cl)Cl [Salubrinal] + Cc1cc(Nc2cc(N3CCN(C)CC3)nc(Sc3ccc(NC(=O)C4CC4)cc3)n2)n[nH]1 [Tozasertib] (partner 0.1 µM)
In short: (§1)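 The day after seeding in 1536-well plates, lung cancer cell lines were treated by pin tool with a single drug, or with a fixed anchor-drug dose together with five library-drug doses (not always all listed) in √10 steps. After 5 days, a combined fix-and-stain solution (final 0.05% Triton X-100, 1% formaldehyde, 1 ug/ml Hoechst) was added. Nuclei counted on 4× images gave relative viability as treated counts over vehicle counts, reported as the median of duplicate plates.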

[1] = compound: Cc1ccc2nc(NCCN)c3ncc(C)n3c2c1 + Cc1nc(Nc2ncc(C(=O)Nc3c(C)cccc3Cl)s2)cc(N2CCN(CCO)CC2)n1 [Dasatinib] (partner 0.075 µM)
In short: as §1

Salubrinal + Pemetrexed = compound: O=C(/C=C/c1ccccc1)NC(NC(=S)Nc1cccc2cccnc12)C(Cl)(Cl)Cl [Salubrinal] + Nc1nc2[nH]cc(CCc3ccc(C(=O)N[C@@H](CCC(=O)O)C(=O)O)cc3)c2c(=O)[nH]1 [Pemetrexed] (partner 0.2 µM)
In short: as §1

Salubrinal + Bortezomib = compound: O=C(/C=C/c1ccccc1)NC(NC(=S)Nc1cccc2cccnc12)C(Cl)(Cl)Cl [Salubrinal] + CC(C)C[C@H](NC(=O)[C@H](Cc1ccccc1)NC(=O)c1cnccn1)B(O)O [Bortezomib] (partner 0.002 µM)
In short: as §1

Cell Line | relative viability (Salubrinal + Tozasertib; first compound 0.08 µM) | relative viability (Salubrinal + Tozasertib; first compound 0.253 µM) | relative viability (Salubrinal + Tozasertib; first compound 0.8 µM) | relative viability (Salubrinal + Tozasertib; first compound 2.53 µM) | relative viability (Salubrinal + Tozasertib; first compound 8 µM) | relative viability ([1]; first compound 0.04 µM) | relative viability ([1]; first compound 0.1265 µM) | relative viability ([1]; first compound 0.4 µM) | relative viability ([1]; first compound 1.265 µM) | relative viability ([1]; first compound 4 µM) | relative viability (Salubrinal + Pemetrexed; first compound 0.08 µM) | relative viability (Salubrinal + Pemetrexed; first compound 0.253 µM) | relative viability (Salubrinal + Pemetrexed; first compound 0.8 µM) | relative viability (Salubrinal + Pemetrexed; first compound 2.53 µM) | relative viability (Salubrinal + Pemetrexed; first compound 8 µM) | relative viability (Salubrinal + Bortezomib; first compound 0.08 µM) | relative viability (Salubrinal + Bortezomib; first compound 0.253 µM) | relative viability (Salubrinal + Bortezomib; first compound 0.8 µM) | relative viability (Salubrinal + Bortezomib; first compound 2.53 µM) | relative viability (Salubrinal + Bortezomib; first compound 8 µM)
201T | 0.873 | 0.837 | 0.933 | 0.98 | 0.967 | 0.56 | 0.501 | 0.587 | 0.524 | 0.483 | 0.356 | 0.321 | 0.403 | 0.318 | 0.364 | 1.14 | 1.06 | 1.14 | 1.09 | 1.11
A-427 | 0.22 | 0.226 | 0.227 | 0.227 | 0.21 | 0.682 | 0.654 | 0.644 | 0.632 | 0.628 | 0.957 | 0.964 | 1.17 | 1.03 | 1.1 | 0.96 | 0.908 | 1.12 | 0.961 | 1.06
ABC-1 | 0.168 | 0.185 | 0.194 | 0.183 | 0.206 | 0.613 | 0.573 | 0.501 | 0.57 | 0.594 | – | – | – | – | – | 0.322 | 0.35 | 0.363 | 0.303 | 0.281
BEN | – | 0.689 | 0.718 | 0.479 | 0.471 | 0.329 | 0.291 | 0.27 | 0.363 | 0.374 | 0.744 | 0.753 | 0.971 | 0.846 | 0.791 | 0.716 | 0.721 | 0.979 | 0.941 | 0.909
CAL-12T | 0.32 | 0.279 | 0.323 | 0.241 | 0.241 | 0.34 | 0.342 | 0.373 | 0.387 | 0.294 | 1.4 | 0.754 | 1.46 | 1.07 | 1.21 | 0.983 | 0.899 | 1.54 | 0.915 | 0.998
COR-L23 | 0.191 | 0.185 | 0.194 | 0.168 | 0.145 | 0.525 | 0.514 | 0.518 | 0.46 | 0.403 | 0.203 | 0.205 | 0.194 | 0.206 | 0.196 | 1.16 | 0.786 | 1.12 | 0.998 | 0.809
COR-L 105 | 0.665 | 0.37 | 0.312 | 0.335 | 0.328 | 0.446 | 0.385 | 0.416 | 0.402 | 0.343 | 1.25 | 0.831 | 1.24 | 1.04 | 1.09 | 0.756 | 0.829 | 0.86 | 0.816 | 0.604
Calu-6 | – | – | – | – | – | – | – | – | – | – | – | – | – | – | – | 1.18 | 0.856 | 1.11 | 1.01 | 0.918
ChaGo-K-1 | 0.257 | 0.264 | 0.231 | 0.216 | 0.216 | 0.551 | 0.659 | 0.659 | 0.504 | 0.566 | 0.266 | 0.274 | 0.241 | 0.253 | 0.375 | 1.06 | 0.759 | 1.6 | 1.2 | 1.03
EBC-1 | – | – | – | – | – | – | – | – | – | – | – | – | – | – | – | 0.719 | 0.544 | 0.504 | 0.501 | 0.466
EKVX | 0.437 | 0.387 | 0.536 | 0.382 | 0.321 | 0.523 | 0.548 | 0.466 | 0.37 | 0.46 | 0.411 | 0.361 | 0.444 | 0.385 | 0.325 | 1.14 | 0.821 | 1.17 | 1.06 | 1.02
EMC-BAC-2 | 0.239 | 0.289 | 0.313 | 0.255 | 0.261 | 0.339 | 0.335 | 0.345 | 0.276 | 0.307 | 0.42 | 0.441 | 0.459 | 0.473 | 0.478 | 1.16 | 0.974 | 1.09 | 1.16 | 1.17
EPLC-272H | 0.426 | 0.249 | 0.258 | 0.243 | 0.242 | 0.414 | 0.411 | 0.489 | 0.406 | 0.382 | 0.255 | – | 0.363 | 0.342 | 0.294 | 0.884 | 0.756 | 1.11 | 1.1 | 0.855
H3255 | 0.502 | 0.65 | 0.802 | 0.551 | 0.477 | 0.396 | 0.393 | 0.45 | 0.383 | 0.387 | 0.562 | 0.582 | 0.558 | 0.557 | 0.604 | 0.816 | 0.826 | 1.23 | 0.767 | 0.761
HARA | 0.122 | 0.108 | 0.111 | 0.0979 | 0.106 | 0.295 | 0.282 | 0.313 | 0.243 | 0.255 | 0.254 | 0.285 | 0.327 | 0.273 | 0.254 | 1.14 | 1.01 | 1.16 | 1.13 | 1.06
HCC-15 | 0.481 | 0.332 | 0.41 | 0.438 | 0.257 | 0.703 | 0.666 | 0.646 | 0.575 | 0.391 | 0.205 | 0.266 | 0.234 | 0.231 | 0.211 | 1.13 | 0.804 | 1.14 | 1.15 | 0.997
HCC-44 | 1.24 | 0.916 | 1.08 | 0.74 | 0.708 | – | – | – | – | – | 0.641 | 0.708 | 0.66 | 0.698 | 0.662 | 0.799 | 0.817 | 0.997 | 0.922 | 0.86
HCC-78 | 0.372 | 0.343 | 0.345 | 0.351 | 0.314 | 0.425 | 0.496 | 0.364 | 0.354 | 0.303 | 0.928 | 0.837 | 0.971 | 0.918 | 0.899 | 0.516 | 0.579 | 0.521 | 0.537 | 0.427
